In PMC7400577 (Scientific Reports, 2020):
Where “and” joins values, the source holds several entries; their conditions need not be identical. Identical values can stand only once. Like-named read-outs stand apart in the source and are kept apart here.

Columns and labels:
hBGT1 [1] = biological target: T1, hBGT1 (Homo sapiens, UniProt P48065); assay: FLIPR Membrane Potential (FMP) assay at hBGT1 stably expressed in CHO Flp-In cells; format: cell-based; conditions: for substrate character at hBGT1 in FMP assay: concentration-dependent increase in fluorescence signal; for Mean Rmax as % of GABA Rmax ± S.E.M. / EC50: hBGT1 stably expressed in CHO Flp-In cells; for Mean Rmax as % of GABA Rmax ± S.E.M.: FMP assay; for EC50: three independent experiments
T1 construct: expressed in transfected cells
T1 sequence (P48065 1-614): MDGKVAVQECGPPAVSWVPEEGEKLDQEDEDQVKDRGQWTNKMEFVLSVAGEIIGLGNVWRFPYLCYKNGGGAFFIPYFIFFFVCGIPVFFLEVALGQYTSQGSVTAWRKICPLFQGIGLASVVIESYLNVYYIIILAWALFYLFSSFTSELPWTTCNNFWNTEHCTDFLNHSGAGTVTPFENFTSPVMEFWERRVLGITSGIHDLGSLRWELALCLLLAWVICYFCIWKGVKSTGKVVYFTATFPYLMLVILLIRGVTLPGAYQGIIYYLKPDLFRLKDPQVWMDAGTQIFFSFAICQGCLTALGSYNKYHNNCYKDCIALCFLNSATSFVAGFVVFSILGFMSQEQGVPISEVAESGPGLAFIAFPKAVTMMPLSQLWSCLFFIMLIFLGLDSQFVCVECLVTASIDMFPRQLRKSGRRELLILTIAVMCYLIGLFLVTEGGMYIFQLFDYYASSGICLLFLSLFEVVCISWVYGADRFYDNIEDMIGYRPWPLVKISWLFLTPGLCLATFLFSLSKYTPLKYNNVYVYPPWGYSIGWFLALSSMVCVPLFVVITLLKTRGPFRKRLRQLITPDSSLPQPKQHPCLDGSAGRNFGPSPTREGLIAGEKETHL
Procedure: The fluorescence-based FMP assay was performed as previously described, for the functional characterization of the electrogenic transport of substrates via hBGT1. Briefly, CHO Flp-In cells stably expressing hBGT1 or hGAT1 were plated (~ 50,000 cells/well) into black PDL-coated 96-well plates with clear bottom (VWR, Radnor, PA, USA). The next day, the growth medium was removed, and cells were washed once with HBSS assay buffer and FMP Blue Dye (Molecular Devices, Crawley, UK), added, and incubated. Ligands were added via the NOVOStar plate reader (BMG Labtech GmbH, Offenburg, Germany), preheated to 37 °C, approximately 10 min before reading of the cell plate. The fluorescence signals were measured for 33.8 s upon ligand addition using an emission and excitation wavelength of […], respectively. Electrogenic transport of substrates via hBGT1 will lead to an influx of the negatively charged FMP Blue dye that will bind to intracellular proteins and lipids resulting in an increase in the fluorescence signal.
Data analysis and statistical evaluation were performed in GraphPad Prism 7.02 (GraphPad Software, San Diego, CA, USA). Concentration-uptake inhibition curves, generated from the radioligand-based uptake assays, were fitted by non-linear regression, using the equation for sigmoidal concentration–response with variable slope: Y = Bottom + (Top–Bottom)/(1 + 10^((logIC50 − X) × HillSlope)), where Y is the response, X is the logarithm of the concentration, Top and Bottom are the plateaus in same units as Y, logIC50 is the concentration giving a response halfway between Bottom and Top, and the HillSlope is the steepness of the curve. For the substrate concentration–response curves generated from the FMP assay, the same equation was used but with logEC50 instead for logIC50. Unless otherwise stated, data are presented as means ± S.E.M. of at least three independent pooled experiments performed in triplicates.

hBGT1 [2] = biological target: T1, hBGT1; conditions: [3H]GABA uptake, recombinant hBGT1; adapted from Al-Khawaja et al.; cited from earlier work
hGAT2 = biological target: T2, hGAT2 (Homo sapiens, UniProt Q9NSD5); conditions: [3H]GABA uptake, recombinant hGAT2; adapted from Al-Khawaja et al.; cited from earlier work
T2 construct: expressed in transfected cells
T2 sequence (Q9NSD5 1-602): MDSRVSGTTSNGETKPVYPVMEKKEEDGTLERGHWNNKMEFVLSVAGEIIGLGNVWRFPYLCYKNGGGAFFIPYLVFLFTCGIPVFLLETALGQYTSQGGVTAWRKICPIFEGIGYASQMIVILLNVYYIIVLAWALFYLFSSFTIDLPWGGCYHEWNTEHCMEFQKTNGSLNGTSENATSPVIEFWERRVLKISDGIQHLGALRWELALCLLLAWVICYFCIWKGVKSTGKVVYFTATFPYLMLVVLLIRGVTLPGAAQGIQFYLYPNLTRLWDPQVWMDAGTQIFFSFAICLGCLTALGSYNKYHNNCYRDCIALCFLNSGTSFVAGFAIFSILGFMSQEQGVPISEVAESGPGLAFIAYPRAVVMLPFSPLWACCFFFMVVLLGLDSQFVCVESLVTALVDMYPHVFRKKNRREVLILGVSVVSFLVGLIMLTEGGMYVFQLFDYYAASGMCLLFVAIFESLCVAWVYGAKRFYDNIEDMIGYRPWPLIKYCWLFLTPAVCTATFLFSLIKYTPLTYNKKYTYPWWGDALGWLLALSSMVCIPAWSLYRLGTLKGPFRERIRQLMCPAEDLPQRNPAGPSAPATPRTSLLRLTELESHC

hGAT3 = biological target: T3, hGAT3 (Homo sapiens, UniProt P48066); conditions: [3H]GABA uptake, recombinant hGAT3; adapted from Al-Khawaja et al.; cited from earlier work
T3 construct: expressed in transfected cells
T3 sequence (P48066 1-632): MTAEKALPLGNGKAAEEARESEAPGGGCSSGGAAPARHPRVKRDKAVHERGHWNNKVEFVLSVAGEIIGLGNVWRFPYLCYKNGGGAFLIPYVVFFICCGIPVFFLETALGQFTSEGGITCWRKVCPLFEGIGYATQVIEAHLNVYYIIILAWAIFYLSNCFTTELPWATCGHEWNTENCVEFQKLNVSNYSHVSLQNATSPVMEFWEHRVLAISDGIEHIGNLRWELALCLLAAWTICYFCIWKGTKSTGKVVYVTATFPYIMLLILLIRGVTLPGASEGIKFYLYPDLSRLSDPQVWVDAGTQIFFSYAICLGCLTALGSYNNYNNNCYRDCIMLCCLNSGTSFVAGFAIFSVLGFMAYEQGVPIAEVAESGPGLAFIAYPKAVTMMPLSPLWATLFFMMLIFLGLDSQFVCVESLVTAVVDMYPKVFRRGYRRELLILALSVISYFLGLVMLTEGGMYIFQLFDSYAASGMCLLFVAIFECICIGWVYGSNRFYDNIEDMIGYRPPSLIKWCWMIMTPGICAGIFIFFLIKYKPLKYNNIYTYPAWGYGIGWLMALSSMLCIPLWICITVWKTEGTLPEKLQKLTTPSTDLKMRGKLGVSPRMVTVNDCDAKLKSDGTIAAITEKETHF

hBGT1 [3] = biological target: T1, hBGT1; conditions: previously demonstrated; cited from earlier work

## NC1=NC=C(C(=O)O)CN1.O=C(O)C(F)(F)F [compound 11]
hBGT1 [1]
  substrate character at hBGT1 in FMP assay: substrates for hBGT1
  Mean Rmax as % of GABA Rmax ± S.E.M.: 95 ± 4.0 % of GABA Rmax
  EC50: 75 µM

## NC1=NCC(C(=O)O)CC1 (centres unmarked) [compound 2, 6-amino-2,3,4,5-tetrahydropyridine-3-carboxylic acid, reference compound]
hBGT1 [1]
  substrate character at hBGT1 in FMP assay: substrates for hBGT1
  Mean Rmax as % of GABA Rmax ± S.E.M.: 103 ± 3.9 % of GABA Rmax and 76 ± 2.7 % of GABA Rmax
hBGT1 [2]
  IC50: 9.8 µM

## NC1=NCC(C(=O)O)CN1 (centres unmarked) [ATPCA, 2-amino-1,4,5,6-tetrahydropyrimidine-5-carboxylic acid, reference compound]
hBGT1 [2]
  IC50: 2.5 µM
  pIC50 ± S.E.M. hBGT1: 5.60 ± 0.11
hGAT2
  IC50: 41 µM
  pIC50 ± S.E.M. hGAT2: 4.39 ± 0.09
hGAT3
  IC50: 99 µM
  pIC50 ± S.E.M. hGAT3: 4.00 ± 0.03
hBGT1 [3]
  substrate character at hBGT1 in FMP assay: substrate for hBGT1

## CCN1CC(C(=O)O)CN=C1N.Cl (centres unmarked) [compound 3]
hBGT1 [1]
  substrate character at hBGT1 in FMP assay: substrates for hBGT1

## C[C@@H]1N=C(N)NC[C@@H]1C(=O)O (single isomer, unassigned) [l-15a]
hBGT1 [1]
  substrate character at hBGT1 in FMP assay: substrates for hBGT1
  Mean Rmax as % of GABA Rmax ± S.E.M.: 36 ± 2.9 % of GABA Rmax
  EC50: 40 µM
